# Measurements taken from US6897206B2, “Combinations for the treatment of inflammatory disorders” (CombinatoRx, Inc., priority 2001, dated 2005).
# Assays:
# TNFα secretion [1] = test: cells; settings: Homo sapiens, read-out: TNFα inhibition
# Method: (§1) The compound dilution matrix was assayed using a TNFα ELISA method. Briefly, a 100 μl suspension of diluted human peripheral blood mononuclear cells (PBMCs) contained within each well of a polystyrene 384-well plate (NalgeNunc) was stimulated to secrete TNFα by treatment with a final concentration of 10 ng/ml phorbol 12-myristate 13-acetate (Sigma) and 750 ng/μl ionomycin (Sigma). Various concentrations of each test compound were added at the time of stimulation. After 16-18 hours of incubation at 37° C. in a humidified incubator, the plate was centrifuged and the supernatant transferred to a white opaque polystyrene 384 well plate (NalgeNunc, Maxisorb) coated with an anti-TNF antibody (PharMingen, #18631 D). After a two-hour incubation, the plate was washed (Tecan PowerWasher 384) with phosphate buffered saline (PBS) containing 0.1% Tween 20 (polyoxyethylene sorbitan monolaurate) and incubated for an additional one hour with another anti-TNF antibody that was biotin labeled (PharMingen, 18642D) and horseradish peroxidase (HRP) coupled to strepavidin (PharMingen, #13047E). After the plate was washed with 0.1% Tween 20/PBS, the HRP substrate (which contains luminol, hydrogen peroxide, and an enhancer such as para-iodophenol) was added to each well and light intensity measured using a LJL Analyst luminometer. Control wells contained a final concentration of 1 μg/ml cyclosporin A (Sigma).
# TNFα secretion [2] = test: TNFα ELISA; suppression of TNFα secretion from phorbol 12-myristate 13-acetate and ionomycin stimulated PBMCs/blood; settings: Homo sapiens, PBMC; for inhibition at 0.05 µM: amoxapine 0.050 μM alone (prednisolone 0.000 μM); for inhibition at 0.199 µM: amoxapine 0.199 μM alone (prednisolone 0.000 μM); for inhibition at 0.797 µM: amoxapine 0.797 μM alone (prednisolone 0.000 μM); for inhibition at 0.004 µM: prednisolone 0.004 μM alone (amoxapine 0.000 μM); for inhibition at 0.017 µM: prednisolone 0.017 μM alone (amoxapine 0.000 μM); for inhibition at 0.069 µM: prednisolone 0.069 μM alone (amoxapine 0.000 μM); for inhibition at 0.277 µM: prednisolone 0.277 μM alone (amoxapine 0.000 μM)
# Method: Stock solutions of amoxapine (16 mg/ml) (Sigma-Aldrich, St. Louis, Mo.; catalog number A129) and prednisolone (1.6 mg/ml) (Sigma-Aldrich, catalog number P6004) were made in dimethylsulfoxide (DMSO). The amoxapine master plates were made by adding 25 μl of the concentrated stock solution to columns 3, 9, and 15 (rows C through N) of a polypropylene 384-well storage plate that had been pre-filled with 75 μl of anhydrous DMSO. Using a TomTec Quadra Plus liquid handler, the 25 μl of amoxapine stock solution was serially diluted two-fold four times into the adjacent columns (columns 4-7, 10-13, 16-19). […] The prednisolone master plates were made by adding 25 μl of the concentrated prednisolone stock solution to the appropriate wells (row C, columns 3-8; row C, columns 9-14; row C, columns 15-20; row I, columns 3-8; row I, columns 9-14; row I, columns 15-20) of the appropriate prednisolone master polypropylene 384-well storage plate. These master plates had been pre-filled with 75 μl of anhydrous DMSO. Using the TomTec Quadra Plus liquid handler, the 25 μl was serially diluted two-fold four times in the adjacent rows (rows D-G, and J-M). […] Master plates were sealed and stored at −20 C until ready for use.
# The final amoxapine/prednisolone combination plate was generated by transferring 1 μl from each of the amoxapine and prednisolone master plates to a dilution plate containing 100 μl of media (RPMI; Gibco BRL, #11875-085), 10% Fetal Bovine Serum (Gibco BRL, #25140-097), 2% Penicillin/Streptomycin (Gibco BRL, #15140-122)) using the TomTec Quadra Plus liquid handler. This dilution plate was then mixed and a 10 μl aliquot transferred to the final assay plate, which had been pre-filled with 40 μl/well RPMI media containing the appropriate stimulant to activate TNFα secretion (see below).
# as §1
# [3] = read-out: TNFα inhibition, Table 1
# [4] = read-out: TNFα inhibition, Table 2
structure (smiles),measurement,setting,value
"Clc1ccc2c(c1)C(N1CCNCC1)=Nc1ccccc1O2 [Amoxapine, 2-cloro-11(1-piperazinyl)dibenz[b,f][1,4]oxapine]",inhibition at 0.05 µM,TNFα secretion [1],3%
same,inhibition at 0.1 µM,TNFα secretion [1],5.52%
same,inhibition at 0.199 µM,TNFα secretion [1],2.39%
same,inhibition at 0.398 µM,TNFα secretion [1],8.1%
same,inhibition at 0.797 µM,TNFα secretion [1],13.1%
same,inhibition at 1.593 µM,TNFα secretion [1],16.8%
same,inhibition at 3.187 µM,TNFα secretion [1],24.2%
same,inhibition at 6.373 µM,TNFα secretion [1],21.3%
same,inhibition at 12.747 µM,TNFα secretion [1],49.6%
same,inhibition at 0.4 µM,"TNFα secretion [2]; read-out: TNFα inhibition activity, follow-up secondary screen, amoxapine alone at 400 nM",16%
same,inhibition at 0.05 µM,TNFα secretion [2]; [3],7.3%
same,inhibition at 0.199 µM,TNFα secretion [2]; [3],16.7%
same,inhibition at 0.797 µM,TNFα secretion [2]; [3],24.3%
same,inhibition at 3.188 µM,"TNFα secretion [2]; read-out: TNFα inhibition, Table 1, amoxapine 3.188 μM alone (prednisolone 0.000 μM)",50.4%
same,inhibition at 12.75 µM,"TNFα secretion [2]; read-out: TNFα inhibition, Table 1, amoxapine 12.750 μM alone (prednisolone 0.000 μM)",73%
same,inhibition at 0.05 µM,TNFα secretion [2]; [4],-3.31%
same,inhibition at 0.1 µM,"TNFα secretion [2]; read-out: TNFα inhibition, Table 2, amoxapine 0.100 μM alone (prednisolone 0.000 μM)",3.6%
same,inhibition at 0.199 µM,TNFα secretion [2]; [4],14.2%
same,inhibition at 0.398 µM,"TNFα secretion [2]; read-out: TNFα inhibition, Table 2, amoxapine 0.398 μM alone (prednisolone 0.000 μM)",16.4%
same,inhibition at 0.797 µM,TNFα secretion [2]; [4],21.9%
same,inhibition at 1.593 µM,"TNFα secretion [2]; read-out: TNFα inhibition, Table 2, amoxapine 1.593 μM alone (prednisolone 0.000 μM)",37.1%
same,inhibition at 3.187 µM,"TNFα secretion [2]; read-out: TNFα inhibition, Table 2, amoxapine 3.187 μM alone (prednisolone 0.000 μM)",48%
same,inhibition at 6.373 µM,"TNFα secretion [2]; read-out: TNFα inhibition, Table 2, amoxapine 6.373 μM alone (prednisolone 0.000 μM)",64.4%
same,inhibition at 12.747 µM,"TNFα secretion [2]; read-out: TNFα inhibition, Table 2, amoxapine 12.747 μM alone (prednisolone 0.000 μM)",80.9%
"C[C@]12C=CC(=O)C=C1CC[C@@H]1[C@@H]2[C@@H](O)C[C@@]2(C)[C@H]1CC[C@]2(O)C(=O)CO [Prednisolone, 1,4-pregnadiene-11beta, 17alpha,21-triol-3,20-dione]",inhibition at 0.004 µM,TNFα secretion [1],12.1%
same,inhibition at 0.009 µM,TNFα secretion [1],30.2%
same,inhibition at 0.017 µM,TNFα secretion [1],37.1%
same,inhibition at 0.035 µM,TNFα secretion [1],33.1%
same,inhibition at 0.069 µM,TNFα secretion [1],38.8%
same,inhibition at 0.139 µM,TNFα secretion [1],48.5%
same,inhibition at 0.277 µM,TNFα secretion [1],48.8%
same,inhibition at 1.11 µM,TNFα secretion [1],60.1%
same,inhibition at 0.009 µM,"TNFα secretion [2]; read-out: TNFα inhibition activity, follow-up secondary screen, prednisolone alone at 9 nM",14%
same,inhibition at 0.004 µM,TNFα secretion [2]; [3],2.69%
same,inhibition at 0.017 µM,TNFα secretion [2]; [3],19.1%
same,inhibition at 0.069 µM,TNFα secretion [2]; [3],22.3%
same,inhibition at 0.277 µM,TNFα secretion [2]; [3],26.8%
same,inhibition at 1.11 µM,"TNFα secretion [2]; read-out: TNFα inhibition, Table 1, prednisolone 1.110 μM alone (amoxapine 0.000 μM)",27.6%
same,inhibition at 0.004 µM,TNFα secretion [2]; [4],9.62%
same,inhibition at 0.009 µM,"TNFα secretion [2]; read-out: TNFα inhibition, Table 2, prednisolone 0.009 μM alone (amoxapine 0.000 μM)",14.3%
same,inhibition at 0.017 µM,TNFα secretion [2]; [4],24.7%
same,inhibition at 0.035 µM,"TNFα secretion [2]; read-out: TNFα inhibition, Table 2, prednisolone 0.035 μM alone (amoxapine 0.000 μM)",24.1%
same,inhibition at 0.069 µM,TNFα secretion [2]; [4],24.6%
same,inhibition at 0.139 µM,"TNFα secretion [2]; read-out: TNFα inhibition, Table 2, prednisolone 0.139 μM alone (amoxapine 0.000 μM)",25.7%
same,inhibition at 0.277 µM,TNFα secretion [2]; [4],36.9%
same,inhibition at 1.11 µM,"TNFα secretion [2]; read-out: TNFα inhibition, Table 2, prednisolone 1.110 μM alone (amoxapine 0.000 μM)",34.6%
same,inhibition at 1.11 µM,"TNFα secretion [2]; read-out: TNFα inhibition, follow-up secondary screen, 1110 nM prednisolone alone",35%
same,inhibition at 1.11 µM,"TNFα secretion [2]; read-out: inhibit TNFα secretion, prednisolone alone at 1.11 μM",28%
